Experimental data published in the supplement of paper PMC11208160.

assay: recombinant barcode read abundance after kanamycin selection (control-corrected) (log10(CPM+1)); higher = more efficient recombination; sequences stand for … in AGTGCAGAGAAAATCGGCCAGTTTTCTCTGCCTGCAGTCCGCATGCCGT…AGATTTATGCAGCGGACTGCCTTTCTCCCAAAGTGATAAACCGGACAGTATCATGGACCGGTTTTCCCGGTAATCCGTATTTGCAAGGTTGGTTTCACT; site = the 11-nt target
Experimental: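 Pooled E. coli target-specificity screen for the IS621 bridge recombinase. Each library plasmid pairs an 11-nt target (CT core) with a bridge RNA whose target-binding loop (9-nt LTG + 4-nt RTG) is reprogrammed; the rest of the 177-nt WT IS621 bridge RNA scaffold is fixed. The plasmid is co-electroporated with a WT donor plasmid; recombinase is induced with 0.1 mM IPTG and recombinants are selected on kanamycin. Recombinant barcodes are sequenced, converted to CPM, averaged over two biological replicates and corrected by the unselected control CPM. Molecule = full bridge RNA written as DNA: LTG = specificity nt 1-9, RTG = reverse complement of specificity nt 8-11, in the WT scaffold.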
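Note: IS621 recombinase and bridge RNA in Escherichia coli cells.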

Sequence | recombinant barcode read abundance (log10)
ACCTTGTCTTGGGTTCTAACCTGTTGCCT (site ACATTGTCTAG) | 0.217
ACCTTGTCTTGGGTTCTAACCTGTTGCCT (site ACCTTGTCTAG) | 0.93
ACCTTGTCTTGGGTTCTAACCTGTTGCCT (site ACGTTGTCTAG) | 0.0273
ACCTTGTCTTGGGTTCTAACCTGTTGCCT (site ACTTTGTCTAG) | 0.0709
ACGAACCCTTGGGTTCTAACCTGTTGCCT (site ACGAACCCTAG) | 1.42
ACGAACCCTTGGGTTCTAACCTGTTGCCT (site ACGGACCCTAT) | 0.247
ACGAAGACTTGGGTTCTAACCTGTTGCCG (site ACGAAGACTCG) | 1.08
ACGAAGACTTGGGTTCTAACCTGTTGCCG (site ACGAGGACTCG) | 0.0668
ACGACGTCTTGGGTTCTAACCTGTTGCTT (site ACGACGTCTAA) | 0.292
ACGACGTCTTGGGTTCTAACCTGTTGCTT (site TCGACGCCTAA) | 0.08
ACGACTACTTGGGTTCTAACCTGTTGCCG (site ACGACTACTCG) | 0.618
ACGACTACTTGGGTTCTAACCTGTTGCCG (site TATTGGCCTAC) | 0.123
ACGATAACTTGGGTTCTAACCTGTTGCCA (site ACGATAACTTG) | 0.215
ACGATAACTTGGGTTCTAACCTGTTGCCA (site CTAGATTCTAT) | 0.363
ACGATACCTTGGGTTCTAACCTGTTGCCT (site ACGATACCTAG) | 0.967
ACGATACCTTGGGTTCTAACCTGTTGCCT (site ACGTTACCTAG) | 0.0943
ACGATATCTTGGGTTCTAACCTGTTGCCT (site AAGATATCTAG) | 0.181
ACGATATCTTGGGTTCTAACCTGTTGCCT (site ACGATATCTAG) | 1.37
ACGATATCTTGGGTTCTAACCTGTTGCCT (site AGGATATCTAG) | 0.549
ACGATATCTTGGGTTCTAACCTGTTGCCT (site ATGATATCTAG) | 0.0859
ACGATCGCTTGGGTTCTAACCTGTTGCCT (site ACGAACGCTAG) | 0.08

Sequence | recombinant barcode read abundance (log10)
ACGATCGCTTGGGTTCTAACCTGTTGCCT (site ACGACCGCTAG) | 0.197
ACGATCGCTTGGGTTCTAACCTGTTGCCT (site ACGAGCGCTAG) | 0.12
ACGATCGCTTGGGTTCTAACCTGTTGCCT (site ACGATCGCTAG) | 1.25
ACGATTCCTTGGGTTCTAACCTGTTGCCT (site AAGATTCCTAG) | 0.132
ACGATTCCTTGGGTTCTAACCTGTTGCCT (site ACGATTCCTAG) | 0.355
ACGATTCCTTGGGTTCTAACCTGTTGCCT (site AGGATTCCTAG) | 0.101
ACGATTCCTTGGGTTCTAACCTGTTGCCT (site ATGATTCCTAG) | 0.0978
ACGCACACTTGGGTTCTAACCTGTTGCCT (site ACGCACACTAG) | 0.214
ACGCACACTTGGGTTCTAACCTGTTGCCT (site CCGCACACTAG) | 0.182
ACGCACACTTGGGTTCTAACCTGTTGCCT (site GCGCACACTAG) | 0.236
ACGCACACTTGGGTTCTAACCTGTTGCCT (site TCGCACACTAG) | 0.233
ACGCACCCTTGGGTTCTAACCTGTTGCCA (site ACGAGCCCTTG) | 0.123
ACGCACCCTTGGGTTCTAACCTGTTGCCA (site ACGCACCCTTG) | 0.379
ACGCACGCTTGGGTTCTAACCTGTTGCGG (site ACACACCCTCC) | 0.0809
ACGCACGCTTGGGTTCTAACCTGTTGCGG (site ACGCACGCTCC) | 0.979
ACGCCGACTTGGGTTCTAACCTGTTGCCT (site ACGCCGACTAG) | 0.432
ACGCCGACTTGGGTTCTAACCTGTTGCCT (site ACGCGGACTAG) | 0.285
ACGCGAGCTTGGGTTCTAACCTGTTGCCG (site ACGCGAGCTCA) | 0.209
ACGCGAGCTTGGGTTCTAACCTGTTGCCG (site ACGCGAGCTCC) | 0.345
ACGCGAGCTTGGGTTCTAACCTGTTGCCG (site ACGCGAGCTCG) | 0.288
ACGCGAGCTTGGGTTCTAACCTGTTGCCG (site ACGCGAGCTCT) | 0.215

Sequence | recombinant barcode read abundance (log10)
ACGCGAGCTTGGGTTCTAACCTGTTGCTG (site ACGCGAGCTCA) | 0.0871
ACGCGAGCTTGGGTTCTAACCTGTTGCTG (site ACGCGAGCTCC) | 0
ACGCGAGCTTGGGTTCTAACCTGTTGCTG (site ACGCGAGCTCG) | 0.14
ACGCGAGCTTGGGTTCTAACCTGTTGCTG (site ACGCGAGCTCT) | 0.187
ACGCGTCCTTGGGTTCTAACCTGTTGCCG (site ACGCGTCCTCG) | 0.263
ACGCGTCCTTGGGTTCTAACCTGTTGCCG (site TCGCGTCCTCG) | 0.355
ACGCTAGCTTGGGTTCTAACCTGTTGCCT (site ACGCTAGCTAG) | 0.357
ACGCTAGCTTGGGTTCTAACCTGTTGCCT (site CCGCTAGCTAG) | 0.138
ACGCTAGCTTGGGTTCTAACCTGTTGCCT (site GCGCTAGCTAG) | 0.226
ACGCTAGCTTGGGTTCTAACCTGTTGCCT (site TCGCTAGCTAG) | 0.0462
ACGCTGGCTTGGGTTCTAACCTGTTGCCT (site ACACTGGCTAG) | 0.386
ACGCTGGCTTGGGTTCTAACCTGTTGCCT (site ACCCTGGCTAG) | 0.0594
ACGCTGGCTTGGGTTCTAACCTGTTGCCT (site ACGCTGGCTAG) | 0.381
ACGCTGGCTTGGGTTCTAACCTGTTGCCT (site ACTCTGGCTAG) | 0.0925
ACGGGATCTTGGGTTCTAACCTGTTGCCT (site ACGGGATCTAG) | 1.57
ACGGGATCTTGGGTTCTAACCTGTTGCCT (site CCGGGATCTAG) | 0.24
ACGGGATCTTGGGTTCTAACCTGTTGCCT (site GCGGGATCTAG) | 0.129
ACGGGATCTTGGGTTCTAACCTGTTGCCT (site TCGGGATCTAG) | 0.0975
ACGGGTCCTTGGGTTCTAACCTGTTGCAG (site ACGGGTCCTCT) | 3.09
ACGGGTCCTTGGGTTCTAACCTGTTGCAG (site GGCAAGGCTAG) | 0.0641
ACGGGTTCTTGGGTTCTAACCTGTTGCCT (site ACGGGTTCTAG) | 2.46

Sequence | recombinant barcode read abundance (log10)
ACGGGTTCTTGGGTTCTAACCTGTTGCCT (site TCCGGTTCTAG) | 0.107
ACGGTCACTTGGGTTCTAACCTGTTGCCT (site AAGGTCACTAG) | 0.331
ACGGTCACTTGGGTTCTAACCTGTTGCCT (site ACGGTCACTAG) | 2.95
ACGGTCACTTGGGTTCTAACCTGTTGCCT (site AGGGTCACTAG) | 0.264
ACGGTCACTTGGGTTCTAACCTGTTGCCT (site ATGGTCACTAG) | 0.869
ACGGTGACTTGGGTTCTAACCTGTTGCCT (site ACGGTGACTAG) | 2.24
ACGGTGACTTGGGTTCTAACCTGTTGCCT (site CCGGTGACTAG) | 0.298
ACGGTGACTTGGGTTCTAACCTGTTGCCT (site GCGGTGACTAG) | 0.0376
ACGGTGACTTGGGTTCTAACCTGTTGCCT (site TCGGTGACTAG) | 0.0684
ACGTAGACTTGGGTTCTAACCTGTTGCAG (site ACAGAGACTCT) | 0.145
ACGTAGACTTGGGTTCTAACCTGTTGCAG (site ACGTAGACTCT) | 0.802
ACGTCCACTTGGGTTCTAACCTGTTGCCA (site ACGTCCACTTG) | 0.148
ACGTCCACTTGGGTTCTAACCTGTTGCCA (site GGAAGGTCTAT) | 0.025
ACGTCCACTTGGGTTCTAACCTGTTGCCT (site ACGTCCACTAG) | 0.0313
ACGTCCACTTGGGTTCTAACCTGTTGCCT (site CCGTCGACTAG) | 0.317
ACGTCGTCTTGGGTTCTAACCTGTTGCCT (site AAGTCGTCTAG) | 0.0262
ACGTCGTCTTGGGTTCTAACCTGTTGCCT (site ACGTCGTCTAG) | 0.0697
ACGTCGTCTTGGGTTCTAACCTGTTGCCT (site AGGTCGTCTAG) | 0.102
ACGTCGTCTTGGGTTCTAACCTGTTGCCT (site ATGTCGTCTAG) | 0.0865
